Molecules are shown by their SMILES. Read-outs that look alike come from different tables or passages of the source. Some results are limits rather than exact numbers.

The target in one data set is GLP-1R (Homo sapiens, UniProt P43220). As to the kind of experiment: GLP-1R activation: cAMP increase in CHO cells stably expressing GLP-1R. The data set is classed as cell-based.
The nature of data set [1]: Microsomal stability, human liver microsomes (predicted hepatic clearance). The note with it: predicted from in vitro microsomal stability data.
The mark [2] stands for this setting: cAMP increase, CHO cells stably expressing GLP-1R, 10 point dose response, 30 minutes incubation, read-out: EC50.

Chain of GLP-1R (P43220 24-463): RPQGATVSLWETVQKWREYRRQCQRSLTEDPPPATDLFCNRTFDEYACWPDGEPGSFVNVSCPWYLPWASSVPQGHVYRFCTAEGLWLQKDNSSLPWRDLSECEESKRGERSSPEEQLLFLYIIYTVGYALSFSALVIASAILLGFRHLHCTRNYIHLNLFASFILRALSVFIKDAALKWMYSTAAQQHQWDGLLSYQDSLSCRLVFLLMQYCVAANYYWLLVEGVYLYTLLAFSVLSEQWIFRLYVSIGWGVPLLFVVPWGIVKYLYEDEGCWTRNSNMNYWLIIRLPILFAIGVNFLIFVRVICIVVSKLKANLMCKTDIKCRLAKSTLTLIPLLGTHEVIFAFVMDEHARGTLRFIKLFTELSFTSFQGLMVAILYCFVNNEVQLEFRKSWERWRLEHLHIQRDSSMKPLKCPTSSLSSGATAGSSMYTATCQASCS

Regarding `N#Cc1ccc(COc2nccc(-c3ccc(Cc4nc5c(F)cc(C(=O)O)cc5n4CC4(CF)CC4)cc3F)n2)c(F)c1` [Example 299, 2-(4-(2-((4-cyano-2-fluorobenzyl)oxy)pyrimidin-4-yl)-3-fluorobenzyl)-4-fluoro-1-((1-(fluoromethyl)cyclopropyl)methyl)-1H-benzo[d]imidazole-6-carboxylic acid], at GLP-1R (setting [2]), the EC50 turned out to be 0.4 nM. In addition, the “Predicted Hepatic Clearance (Pred. Cl.)” value in data set [1] is 5.17 mL/min/kg.

`N#CCC1(Cn2c(Cc3ccc(-c4ccnc(OCc5ccc(C#N)cc5F)n4)c(F)c3)nc3ccc(C(=O)O)nc32)CC1` [Example 300, 2-(4-(2-((4-cyano-2-fluorobenzyl)oxy)pyrimidin-4-yl)-3-fluorobenzyl)-3-((1-(cyanomethyl)cyclopropyl)methyl)-3H-imidazo[4,5-b]pyridine-5-carboxylic acid]: the EC50 on GLP-1R (setting [2]) is 0.68 nM. Besides, the “Predicted Hepatic Clearance (Pred. Cl.)” value in data set [1] is under 1.83 mL/min/kg.

At GLP-1R (EC50 (nM)), `COCCn1c(Cc2cc(F)c(-c3cccc(OCc4ccc(C#N)cc4F)n3)cc2F)nc2c(F)cc(C(=O)O)cc21` [Example 301, 2-(4-(6-((4-cyano-2-fluorobenzyl)oxy)pyridin-2-yl)-2,5-difluorobenzyl)-4-fluoro-1-(2-methoxyethyl)-1H-benzo[d]imidazole-6-carboxylic acid] yielded an EC50 of 0.73 nM. For the same compound, the “Predicted Hepatic Clearance (Pred. Cl.)” value in data set [1] was 5.05 mL/min/kg.

Take `N#Cc1ccc(COc2nccc(-c3ccc(Cc4nc5ccc(C(=O)O)nc5n4CC4(CF)CC4)cc3F)n2)c(F)c1` [Example 302, 2-(4-(2-((4-cyano-2-fluorobenzyl)oxy)pyrimidin-4-yl)-3-fluorobenzyl)-3-((1-(fluoromethyl)cyclopropyl)methyl)-3H-imidazo[4,5-b]pyridine-5-carboxylic acid]: the concentration giving a half-maximal response (EC50) at GLP-1R (setting [2]) is 1.21 nM. The “Predicted Hepatic Clearance (Pred. Cl.)” value in data set [1] was 2.67 mL/min/kg.

Consider `N#CCC1(Cn2c(Cc3ccc(-c4ccnc(OCc5ccc(C#N)cc5F)n4)c(F)c3)nc3c(F)cc(C(=O)O)cc32)CC1` [Example 303, 2-(4-(2-((4-cyano-2-fluorobenzyl)oxy)pyrimidin-4-yl)-3-fluorobenzyl)-1-((1-(cyanomethyl)cyclopropyl)methyl)-4-fluoro-1H-benzo[d]imidazole-6-carboxylic acid], for which the EC50 at GLP-1R (setting [2]) was 1.33 nM. In addition, in data set [1], the “Predicted Hepatic Clearance (Pred. Cl.)” value is 4 mL/min/kg.

Regarding `COCCn1c(Cc2cc(F)c(-c3cccc(OCc4ccc(C#N)cc4F)n3)cc2Cl)nc2ccc(C(=O)O)cc21` [Example 304, 2-(2-chloro-4-(6-((4-cyano-2-fluorobenzyl)oxy)pyridin-2-yl)-5-fluorobenzyl)-1-(2-methoxyethyl)-1H-benzo[d]imidazole-6-carboxylic acid], on GLP-1R (setting [2]), the EC50 was 0.5 nM. Also, in data set [1], the “Predicted Hepatic Clearance (Pred. Cl.)” value was 5.33 mL/min/kg.

On to `N#CCCn1c(Cc2cc(F)c(-c3cccc(OCc4ccc(C#N)cc4F)n3)cc2F)nc2ccc(C(=O)O)cc21` [Example 305, 2-(4-(6-((4-cyano-2-fluorobenzyl)oxy)pyridin-2-yl)-2,5-difluorobenzyl)-1-(2-cyanoethyl)-1H-benzo[d]imidazole-6-carboxylic acid], for which the EC50 on GLP-1R (setting [2]) turned out to be 1.25 nM. Further, the “Predicted Hepatic Clearance (Pred. Cl.)” value in data set [1] is 4.67 mL/min/kg.

As for `N#Cc1ccc(COc2cccc(-c3cc(F)c(Cc4nc5ccc(C(=O)O)cc5n4CC4COC4)cc3F)n2)c(F)c1` [Example 307, 2-(4-(6-((4-cyano-2-fluorobenzyl)oxy)pyridin-2-yl)-2,5-difluorobenzyl)-1-(oxetan-3-ylmethyl)-1H-benzo[d]imidazole-6-carboxylic acid], the EC50 at GLP-1R (setting [2]) came out at 7.96 nM. Also, in data set [1], the “Predicted Hepatic Clearance (Pred. Cl.)” value is 5.33 mL/min/kg.

Regarding `N#Cc1ccc(COc2cccc(-c3cc(F)c(Cc4nc5ccc(C(=O)O)cc5n4CC4(C(F)F)COC4)cc3F)n2)c(F)c1` [Example 308, 2-(4-(6-((4-cyano-2-fluorobenzyl)oxy)pyridin-2-yl)-2,5-difluorobenzyl)-1-((3-(difluoromethyl)oxetan-3-yl)methyl)-1H-benzo[d]imidazole-6-carboxylic acid], the EC50 on GLP-1R (setting [2]) came out at 1.26 nM. In data set [1], the “Predicted Hepatic Clearance (Pred. Cl.)” value was 5.83 mL/min/kg.

Consider `COCCn1c(Cc2cc(F)c(-c3cccc(OCc4ccc(C#N)cc4F)n3)cc2F)nc2ccc(C(=O)O)c(F)c21` [Example 309, 2-(4-(6-((4-cyano-2-fluorobenzyl)oxy)pyridin-2-yl)-2,5-difluorobenzyl)-7-fluoro-1-(2-methoxyethyl)-1H-benzo[d]imidazole-6-carboxylic acid], for which the EC50 at GLP-1R (setting [2]) was 2.16 nM. Further, the “Predicted Hepatic Clearance (Pred. Cl.)” value in data set [1] was 5.17 mL/min/kg.

With `N#Cc1ccc(COc2cccc(-c3cc(F)c(Cc4nc5ccc(C(=O)O)cc5n4Cc4cnccn4)cc3F)n2)c(F)c1` [Example 310, 2-(4-(6-((4-cyano-2-fluorobenzyl)oxy)pyridin-2-yl)-2,5-difluorobenzyl)-1-(pyrazin-2-ylmethyl)-1H-benzo[d]imidazole-6-carboxylic acid], the EC50 at GLP-1R (setting [2]) stood at 16.3 nM. For the same compound, the “Predicted Hepatic Clearance (Pred. Cl.)” value in data set [1] is 6.33 mL/min/kg.

As to `N#Cc1ccc(COc2cccc(-c3cc(F)c(Cc4nc5ccc(C(=O)O)cc5n4Cc4ccccn4)cc3F)n2)c(F)c1` [Example 311, 2-(4-(6-((4-cyano-2-fluorobenzyl)oxy)pyridin-2-yl)-2,5-difluorobenzyl)-1-(pyridin-2-ylmethyl)-1H-benzo[d]imidazole-6-carboxylic acid], the EC50 on GLP-1R (setting [2]) came out at 95.6 nM. Also, the “Predicted Hepatic Clearance (Pred. Cl.)” value in data set [1] is 7 mL/min/kg.

Regarding `N#Cc1ccc(COc2cccc(-c3cc(F)c(Cc4nc5ccc(C(=O)O)cc5n4Cc4ccc[nH]c4=O)cc3F)n2)c(F)c1` [Example 312, 2-(4-(6-((4-cyano-2-fluorobenzyl)oxy)pyridin-2-yl)-2,5-difluorobenzyl)-1-((2-oxo-1,2-dihydropyridin-3-yl)methyl)-1H-benzo[d]imidazole-6-carboxylic acid], the EC50 at GLP-1R (setting [2]) is 250 nM. In addition, the “Predicted Hepatic Clearance (Pred. Cl.)” value in data set [1] is 4.67 mL/min/kg.

In the case of `N#Cc1ccc(COc2cccc(-c3ccc(Cc4nc5ccc(C(=O)O)cc5n4CC4(n5cncn5)CC4)c(F)c3)n2)c(F)c1` [Example 313, 1-((1-(1H-1,2,4-triazol-1-yl)cyclopropyl)methyl)-2-(4-(6-((4-cyano-2-fluorobenzyl)oxy)pyridin-2-yl)-2-fluorobenzyl)-1H-benzo[d]imidazole-6-carboxylic acid], at GLP-1R (setting [2]), the EC50 stood at 3.25 nM. In data set [1], the “Predicted Hepatic Clearance (Pred. Cl.)” value was 7.17 mL/min/kg.

For the compound `COCCn1c(Cc2cc(Cl)c(-c3cccc(OCc4ccc(C#N)cc4F)n3)cc2F)nc2ccc(C(=O)O)cc21` [Example 314, 2-(5-chloro-4-(6-((4-cyano-2-fluorobenzyl)oxy)pyridin-2-yl)-2-fluorobenzyl)-1-(2-methoxyethyl)-1H-benzo[d]imidazole-6-carboxylic acid], the EC50 at GLP-1R (setting [2]) was 12.5 nM. In data set [1], the “Predicted Hepatic Clearance (Pred. Cl.)” value is 5 mL/min/kg.

For the compound `N#Cc1ccc(COc2cccc(-c3ccc(Cc4nc5c(F)cc(C(=O)O)cc5n4CC4(C#N)CC4)c(F)c3)n2)c(F)c1` [Example 315, 2-(4-(6-((4-cyano-2-fluorobenzyl)oxy)pyridin-2-yl)-2-fluorobenzyl)-1-((l-cyanocyclopropyl)methyl)-4-fluoro-1H-benzo[d]imidazole-6-carboxylic acid], on GLP-1R (setting [2]), the EC50 came out at 2.08 nM. The “Predicted Hepatic Clearance (Pred. Cl.)” value in data set [1] was 5.67 mL/min/kg.

The EC50 is the concentration that produces a half-maximal response.
